Test results as given in patent US11318138B2, “Methods for treating B cell proliferative disorders” (priority 2013, dated 2022).

Key:
JEKO-1 cells = assay: MCL cell line culture with Ibrutinib and/or PD 0332991: viability, cell cycle, apoptosis, live cells; type: cell-based; conditions: JEKO-1, Ibrutinib 72 h, Trypan blue exclusion and ToPro-3 FACS
MAVER-1 cells = assay: as above; type: cell-based; conditions: MAVER-1, Ibrutinib 72 h, Trypan blue exclusion and ToPro-3 FACS
MINO cells = assay: as above; type: cell-based
[1] = system: PIK3IP1 mRNA in JEKO-1 cells; assay: q-RT-PCR analysis of PIK3IP1 mRNA expression in MCL cells; type: cell-based; conditions: JEKO-1, PD (30 h) alone or Ibrutinib (24 h) alone
[2] = system: PIK3IP1 mRNA in MAVER-1 cells; assay: as above; type: cell-based; conditions: MAVER-1, PD (30 h) alone or Ibrutinib (24 h) alone
SP53 cells = conditions: SP53, Ibrutinib 72 h, at the G1-S transition
MCL patient (Pt 7) = conditions: Pt 7, Ibrutinib 560 mg daily
[3] = system: chicken lymphoma DL40 cell line; conditions: model chicken lymphoma DL40 cell line; cited from earlier work
[4] = system: CCL3, CCL4, TNF and IL10 expression in MCL cells; conditions: MCL cells ex vivo; cited from earlier work
recurrent MCL patients = conditions: cited from earlier work

## C=CC(=O)N1CCC[C@@H](n2nc(-c3ccc(Oc4ccccc4)cc3)c3c(N)ncnc32)C1 [Ibrutinib, (R)-1-(3-(4-amino-3-(4-phenoxyphenyl)-1H-pyrazolo[3,4-d]pyrimidin-1-yl)piperidin-1-yl)prop-2-en-1-one]
JEKO-1 cells
  sensitivity of cells to ibrutinib (viability, DNA fragmentation): completely refractory
MAVER-1 cells
  sensitivity of cells to ibrutinib (viability, DNA fragmentation): completely refractory
MINO cells; Ibrutinib 72 h
  toxicity to cells: not toxic
MINO cells; Ibrutinib 72 h (1 μM)
  S phase entry (BrdU pulsing/PI analysis): moderately inhibiting
[1]
  PIK3IP1 mRNA induction, single agent: modestly induced
[2]
  PIK3IP1 mRNA induction, single agent: modestly induced
SP53 cells
  apoptosis (accumulation of sub 2N cells, reduction of S phase cells): potently induced apoptosis
MCL patient (Pt 7)
  duration of response before progression: 14 months
[3]
  effect of C481S BTK mutation on ibrutinib sensitivity: conferred resistance
[4]
  expression of CCL3, CCL4, TNF and IL10: suppress

## CC(=O)c1c(C)c2cnc(Nc3ccc(N4CCNCC4)cn3)nc2n(C2CCCC2)c1=O [PD 0332991]
[1]
  PIK3IP1 mRNA induction, single agent: modestly induced
[2]
  PIK3IP1 mRNA induction, single agent: modestly induced
Recurrent MCL patients
  cell cycle effect in patients: prolonged early G1 arrest
  clinical response: durable clinical response
